Target: T1, Aat (acetyl-CoA acetyltransferase) (Cupriavidus necator, UniProt P14611)
T1 construct: gene phaA; recombinant from E. coli BL21(DE3), Ni-NTA purified, desalted
T1 sequence (P14611 1-393): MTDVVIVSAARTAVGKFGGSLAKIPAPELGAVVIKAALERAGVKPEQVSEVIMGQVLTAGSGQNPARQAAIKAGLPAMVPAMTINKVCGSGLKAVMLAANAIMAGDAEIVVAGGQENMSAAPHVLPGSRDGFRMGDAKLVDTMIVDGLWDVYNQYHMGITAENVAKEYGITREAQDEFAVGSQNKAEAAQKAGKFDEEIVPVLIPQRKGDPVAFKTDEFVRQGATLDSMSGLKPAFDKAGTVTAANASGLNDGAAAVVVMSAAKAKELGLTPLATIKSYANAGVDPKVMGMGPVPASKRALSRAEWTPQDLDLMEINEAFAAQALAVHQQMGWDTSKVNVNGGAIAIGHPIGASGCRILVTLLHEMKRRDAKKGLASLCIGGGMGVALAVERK
Test: LC-MS of condensation products, with Aar and Bbd
Format: biochemical
Conditions: acetyl-CoA and propionyl-CoA together

Q: Which “LC-MS of condensation products, with Aar and Bbd” value (condensed with acetyl-CoA, not with itself) does the source give for `CCC(=O)SCCNC(=O)CCNC(=O)[C@H](O)C(C)(C)COP(=O)(O)OP(=O)(O)OC[C@H]1O[C@@H](n2cnc3c(N)ncnc32)[C@H](O)[C@@H]1OP(=O)(O)O` [propionyl-CoA] here?
A: The value was “All products for acetyl- and propionyl-CoA combinations were detectable”.

Q: `CC(=O)SCCNC(=O)CCNC(=O)[C@H](O)C(C)(C)COP(=O)(O)OP(=O)(O)OC[C@H]1O[C@@H](n2cnc3c(N)ncnc32)[C@H](O)[C@@H]1OP(=O)(O)O` [acetyl-CoA] was tested. Which “LC-MS of condensation products, with Aar and Bbd” value did it give?
A: The value was “Promiscuity of Aat assayed with acetyl-CoA and propionyl-CoA”.
